# Measurements from patent publication US5705491A, “Adenosine deaminase inhibitor” (Nippon Zoki Pharmaceutical Co., Ltd., priority 1992, dated 1998).
# Key:
# [1] = test system: rats administered with puromycin aminonucleoside (nephritis model); assay: Therapeutic action to nephritis (puromycin aminonucleoside rats); assay type: in vivo, male rat (SD strain); settings: 50 mg/kg oral, five consecutive days
# Procedure: 2. Therapeutic Action to Nephritis.
# When puromycin aminonucleoside is administered to rats, symptoms similar to protein-rich urine, hypoproteinemia, hyperlipemia, nephrotic syndrome, etc, result and, therefore, rats which are administered with puromycin aminonucleoside have been used as pathological model animals for nephritis. The chemical name for puromycin aminonucleoside is 3'-amino-3'-deoxy-N,N-dimethyladenosine. A method by Endo, et al. [Sogo Rinsho, vol. 38, no. 5, page 821 (1989)] was somewhat modified and used as a test method here. Thus, a solution of puromycin aminonucleoside was dissolved in a physiological saline liquid and administered just once to a tail vein of a male rat (SD strain) of about 200 g body weight at a dose of 100 mg/kg (the initial of zero-th day).
# The compound to be tested was dissolved in a physiological saline liquid and was given orally for five consecutive days from the zero-th day at a dose of 50 mg/kg each. After 24 hours, the accumulated urine was collected and the amount of urine and the amount of protein in the urine was measured. Blood was collected on the tenth day and the total protein in serum, creatinine in serum and urea nitrogen were measured.
# Examples of the results are given in Tables 2 and where the control is those animals injected only with the puromycin aminonucleoside: […]
# [2] = test system: ischemic edema of hind paw of mice; assay: Suppressive action against ischemic edema; assay type: in vivo, ICR-strain male mice
# Procedure: 4. Suppressive Action against Ischemic Edema
# The right hind paw of ICR-strain male mice (11 weeks of age) were fastened with a rubber band to stop the blood stream for 20 minutes, and then the rubber band was removed to recover the blood stream. The tested drug was administered intravenously before the treatment. Each of the right and left hind paws were weighed and the suppressive action was measured according to the weight difference between the treated and untreated paws.
# [3] = molecular target: T1, adenosine deaminase of type VII (mucous membrane of intestinal tract of calf) (Bos taurus, UniProt P56658); assay: Adenosine deaminase inhibiting action; assay type: biochemical; settings: 25° C., 0.05M phosphate buffer pH 7.5, adenosine substrate, 5 minutes, Lineweaver-Burk plots
# T1 construct: from tissue; host or cells: mucous membrane of intestinal tract of calf
# T1 sequence (P56658 1-363): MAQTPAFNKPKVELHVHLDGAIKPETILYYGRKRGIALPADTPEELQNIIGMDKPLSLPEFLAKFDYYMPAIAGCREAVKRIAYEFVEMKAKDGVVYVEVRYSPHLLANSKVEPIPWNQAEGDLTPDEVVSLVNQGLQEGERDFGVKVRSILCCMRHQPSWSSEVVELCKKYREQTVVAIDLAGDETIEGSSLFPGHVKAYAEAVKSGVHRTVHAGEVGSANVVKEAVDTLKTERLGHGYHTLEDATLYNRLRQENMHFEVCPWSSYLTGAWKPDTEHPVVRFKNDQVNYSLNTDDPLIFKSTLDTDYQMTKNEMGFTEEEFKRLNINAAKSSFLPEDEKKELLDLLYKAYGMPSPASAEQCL
# Procedure: 1. Adenosine Deaminase Inhibiting Action
# The enzymatic reaction was conducted at 25° C. in a 0.05M phosphate buffer (pH=7.5). Thus, a reaction solution comprising 800 μl of substrate solution (adenosine), 100 μl of a solution to be tested and 100 μl of enzyme solution (adenosine deaminase of type VII; mucous membrane of intestinal tract of calf) was reacted for 5 minutes and the reaction was stopped by adding 100 μl of acetic acid. Then the amount of inosine produced was determined by means of an HPLC to measure the inhibiting activity. The test was conducted for various substrate concentrations and Ki values were measured by Lineweaver-Burk plots.
# [4] = test system: Human peripheral polymorphonuclear leukocyte (PML); assay: Inhibitory action against activated oxygen (superoxide) generation; assay type: cell-based; settings: FMLP 10^-7 M; for inhibition at 100 µM: 1 × 10^-4 M; for inhibition at 10 µM: 1 × 10^-5 M; for inhibition at 1 µM: 1 × 10^-6 M
# Procedure: 3. Inhibitory Action against Activated Oxygen Generation
# Human peripheral polymorphonuclear leukocyte (PML, 2×10^6 cells) prepared in a conventional method, bovine heart cytochrome C type-III (75 nmol), cytocharasin (5 μg) and tested drug were mixed with HEPES-buffered saline solution (final 1 ml) and incubated for 5 minutes at 37° C. N-Formyl-methionyl-leucyl-phenylalanine (FMLP) was added (final 10^-7 M) and incubated for 5 minutes. Immediately after the incubation, the reaction mixture was centrifuged at 4° C., and then the absorbance at 550 nm of the supernatant was measured with a spectrophotometer.
# An excess amount of bovine liver superoxide dismutase (SOD) was added to the reaction mixture and the absorbance of the supernatant was also measured in the same manner as above as a blank value.
# A portion of adenosine deaminase (ADA) may be removed during the preparation of human peripheral PML. Therefore, the inhibitory action against the generation of superoxide of the tested drug was measured in the same manner as mentioned above, adding 0.02 units of bovine liver ADA with human peripheral PML.
# The inhibition against superoxide generation was calculated by the following equation, and examples of the results are given in Table 4. [formula]
# [5] = with ADA (0.02 units bovine liver)
compound,measurement,setting,value
"CNc1nc(C)nc2c1ncn2[C@@H]1O[C@H](CO)[C@@H](O)[C@H]1OC [Compound 27, 2, N^6,2'-O-Trimethyladenosine]",Serum Creatinine,[1]; blood on tenth day,0.71 mg/dL
same,Total Protein in Serum,[1]; blood on tenth day,7.44 g/dL
same,Urea Nitrogen,[1]; blood on tenth day,31.9 mg/dL
same,Amount of Protein in Urine,[1]; 1st day,0 mg/day
same,Amount of Protein in Urine,[1]; 2nd day,29.2 mg/day
same,Amount of Protein in Urine,[1]; 3rd day,33.8 mg/day
same,Amount of Protein in Urine,[1]; 4th day,122.5 mg/day
same,Amount of Protein in Urine,[1]; 5th day,399.8 mg/day
same,Amount of Protein in Urine,[1]; 6th day,443.7 mg/day
same,Amount of Protein in Urine,[1]; 7th day,558.7 mg/day
same,Amount of Protein in Urine,[1]; 8th day,595.6 mg/day
same,Amount of Protein in Urine,[1]; 9th day,593.5 mg/day
same,Amount of Protein in Urine,[1]; 10th day,528.6 mg/day
same,"Paw Weight, Treated","[2]; 10 mg/kg intravenous before ischemia, treated paw",254.4 ± 6.6 mg
same,Inhibition (of ischemic edema),"[2]; 10 mg/kg intravenous, from weight difference between treated and untreated paws",67.7%
same,Ki,[3],0.859 µM
same,inhibition at 100 µM,[4]; [5],88%
same,inhibition at 10 µM,[4]; [5],77%
same,inhibition at 1 µM,[4]; [5],34%
same,inhibition at 0.1 µM,"[4]; with ADA (0.02 units bovine liver), 1 × 10^-7 M",10%
same,inhibition at 1000 µM,"[4]; without ADA, 1 × 10^-3 M",100%
same,inhibition at 100 µM,[4]; without ADA,79%
same,inhibition at 10 µM,[4]; without ADA,22%
same,inhibition at 1 µM,[4]; without ADA,2%
